The values below come from PMC11467737, “Osteocalcin binds to a GPRC6A Venus fly trap allosteric site to positively modulate GPRC6A signaling” (FASEB BioAdvances, 2024).

The target of one experiment is T1, K352E/H355P hGPRC6A (Homo sapiens, UniProt Q5T6X5, H355P/K352E).
T1 construct: expressed in transfected cells; host or cells: HEK-293, pcDNA3
T1 sequence (Q5T6X5 19-926 K352E/H355P): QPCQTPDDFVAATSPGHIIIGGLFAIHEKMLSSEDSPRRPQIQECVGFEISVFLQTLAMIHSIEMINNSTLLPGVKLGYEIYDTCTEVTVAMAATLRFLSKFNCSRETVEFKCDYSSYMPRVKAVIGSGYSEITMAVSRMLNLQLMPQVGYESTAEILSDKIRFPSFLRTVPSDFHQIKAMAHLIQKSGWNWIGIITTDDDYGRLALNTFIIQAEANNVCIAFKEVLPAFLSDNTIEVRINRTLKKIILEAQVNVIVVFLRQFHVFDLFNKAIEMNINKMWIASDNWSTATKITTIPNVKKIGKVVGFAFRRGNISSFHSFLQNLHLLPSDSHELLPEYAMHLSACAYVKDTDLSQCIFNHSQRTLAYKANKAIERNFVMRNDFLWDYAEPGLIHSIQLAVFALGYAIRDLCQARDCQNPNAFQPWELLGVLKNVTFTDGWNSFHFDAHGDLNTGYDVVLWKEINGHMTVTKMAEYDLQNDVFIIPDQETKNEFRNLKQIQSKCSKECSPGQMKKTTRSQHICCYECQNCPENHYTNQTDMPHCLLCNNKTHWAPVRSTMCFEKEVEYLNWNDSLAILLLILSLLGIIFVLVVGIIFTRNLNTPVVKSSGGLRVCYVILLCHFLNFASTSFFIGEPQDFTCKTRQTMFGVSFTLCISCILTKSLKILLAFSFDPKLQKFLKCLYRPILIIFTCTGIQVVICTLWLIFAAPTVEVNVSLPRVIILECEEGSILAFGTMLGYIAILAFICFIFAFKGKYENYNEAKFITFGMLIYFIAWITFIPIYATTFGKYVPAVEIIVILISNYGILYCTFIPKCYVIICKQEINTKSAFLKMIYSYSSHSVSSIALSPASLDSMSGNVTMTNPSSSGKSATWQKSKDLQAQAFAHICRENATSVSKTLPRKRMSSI
As to the kind of experiment: cAMP accumulation in HEK-293 cells transfected with K352E/H355P hGPRC6A. Conditions: for cAMP accumulation by Ocn small fragments: K352E/H355P double mutant, fragment at 20 nM, Figure 6C. The class given is cell-based. On the procedure:
(§1) HEK‐293 transfected with human GPRC6A isoform cDNA plasmids cells (10^5 cells/well)[30] were cultured in 24‐well plates in DMEM supplemented with 10% fetal bovine serum and 1% penicillin/streptomycin (100 U/mL of penicillin and 100 μg/mL of streptomycin) for 48 h followed by 4 h incubation in DMEM/F12 containing 0.1% BSA and 0.5 mM IBMX to achieve quiescence and preventing cAMP degradation. Quiescent cells were treated with vehicle control, various ligands at concentration as indicated for 40 min at 37°C. Then, the reaction was stopped, and the cells lysed with 0.5 mL 0.1 N HCl. cAMP levels were measured by using Cyclic AMP EIA kit (Cayman Chemical; Ann Arbor, MA, USA) following the manufacture's protocol.
In‐vitro mutagenesis by PCR‐mediated recombination QuikChange II XL Site‐Directed Mutagenesis Kit (Agilent) was performed using the cDNA of human GPRC6A cloned in the vector pcDNA3 (Invitrogen) as a template. The primer sets are as follows. K352E.sen: […]; K352E.antisen: […]; H355P.sen: […]; H355P.antisen: […]; K352E/H355P.sen: […]; and K352E/H355P.antisen: […]. All mutants were confirmed by sequencing.
On the technique in general: Changes in cAMP serve as a functional read-out for many G protein-coupled receptors.

In experiment [1] the test system is wild‐type (Gprc6a +/+) and global knock out (Gprc6a −/−) mice. As to the kind of experiment: Blood glucose after intraperitoneal injection in mice. The experiment is classed as in vivo, mouse. Conditions: 2 nmol/g intraperitoneal, 24 h, n ≥ 5. On the procedure: 8‐week‐old wild‐type (Gprc6a ^ +/+ ) and global knock out (Gprc6a ^ −/− ) mice were injected intraperitoneally with Ocn 20–29 (2 nmol/g body weight), or vehicle (saline; 10 μL/g body weight). Serum was collected at 24 h after intraperitoneal injection. Blood glucose levels were measured by using blood glucose strips and the Accu‐Check glucometer as described.[7], [31] A mouse IL‐6 ELISA Kit was purchased from Invitrogen (Waltham, MA, USA). Rat/Mouse FGF‐21ELISA Kit was obtained from Millipore Sigma (Burlington, MA, USA).
The Gprc6a ^ −/− mouse model was created by replacing exon 2 of the GPRC6A gene with the hygromycin resistance gene, as described previously.[32] Mice were maintained and used in accordance with recommendations as described (National Research Council 1985; Guide for the Care and Use of Laboratory Animals Department of Health and Human Services Publication NIH 86–23, Institute on Laboratory Animal Resources, Rockville, MD) and following guidelines established by the University of Tennessee Health Science Center Institutional Animal Care and Use Committee. The animal study protocol was approved by the institutional review boards at University of Tennessee Health Science Center Institutional Animal Care and Use Committee.

Experiment [2] deals with GPRC6A isoforms 1, 2 and 3. As to the kind of experiment: GPRC6A signaling in GPRC6A isoforms (read-out not given). The class given is cell-based, human. Here is the method: All culture reagents were from Invitrogen (Waltham, MA, USA). Human embryonic kidney HEK‐293 cells were obtained from American Type Culture Collection and cultured in DMEM medium supplemented with 10% fetal bovine serum and 1% Penicillin/Streptomycin (P/S). Briefly, HEK‐293 cells transfected with/without human GPRC6A isoforms cDNA plasmids were starved by overnight incubation in serum‐free DMEM/F12 containing 0.1% bovine serum albumin (BSA) and stimulated with various ligands at different doses. ERK activation was assessed 20 min after treatment by using ERK1/2 (phospho‐T203/Y204) ELISA Kit (Invitrogen; Waltham, MA, USA) corrected for the amount of total ERK using ERK1/2 (Total) ELISA Kit (Invitrogen; Waltham, MA, USA) to measure ERK levels.
as §1, with “Quiescent cells were treated with vehicle control, various ligands at concentration as indicated for 40 min at 37°C.” left out

Bridge positions count the residues as written; N and C are the ends. Ends that are not written are not given here.

For “REVCELNPDC (disulfide 4-10 (inferred)) [Ocn 20–29, synthesized human Ocn decapeptide fragment located in the middle of the protein]”, the “cAMP accumulation by Ocn small fragments” value on K352E/H355P hGPRC6A is “no response”. In experiment [1] (Gprc6a −/− mice), the Blood glucose response result is given as “lost”. Besides, in experiment [1] (wild-type Gprc6a +/+ mice, 8 weeks old, single injection, vehicle saline had no effect), the “Reduction of blood glucose levels” value is reported as ~ 10%. In addition, in experiment [2] (isoforms 2 and 3), the “Response of GPRC6A isoforms 2 and 3” value was “diminished responses”.
As for “RFYGPV [Ocn 44–49, synthesized human Ocn C‐terminal hexapeptide]”, at K352E/H355P hGPRC6A, the “cAMP accumulation by Ocn small fragments” value was “partially activate”. Besides, in experiment [2] (all isoforms, including isoforms 2 and 3 with deletions in the VFT), the “Activation of GPRC6A signaling in GPRC6A isoforms” value is reported as “activated GPRC6A signaling in all GPRC6A isoforms”.
For the substance “osteocalcin (YLYQWLGAPVPYPDPLEPRREVCELNPDCDELADHIGFQEAYRRFYGPV; not fully specified; ends and bridges not checked; UniProt P02818 52-100, looked up) [Ocn 1–49, full human Ocn (49 aa) synthesized by BioMatik; methods also describe decarboxylated Ocn purified from bovine tibial bone, reference compound]”, the “cAMP accumulation, dose response of full-length Ocn, versus wild-type receptor” value with K352E/H355P hGPRC6A (K352E/H355P mutant, Figure 6A) is listed as “significantly decreased”.
